pIC50: −log10 of the molar value. Where two headings read alike, the source gives them in different places.
Target: T1, mTOR (Homo sapiens, UniProt P42345)
T1 construct: FLAG; made in house
Assay: In Vitro mTOR Kinase Assay (Echo), Test (a)(ii)
Format: biochemical
Outline: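 FLAG-tagged truncated mTOR (residues 1362-2549), expressed in HEK293 and purified via the FLAG tag, phosphorylated a biotinylated peptide over 2 hours at room temperature. EDTA stopped the reaction. Phospho-T389 was detected overnight by AlphaScreen using the p70 S6K T389 antibody with Protein A/streptavidin beads; IC50 reported.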

[1] = table of enzyme assay Test (a)(ii), read-out: Test (a)(ii) IC50
[2] = read-out: mTOR Kinase Assay (Echo)

T1 sequence (P42345 1362-2549): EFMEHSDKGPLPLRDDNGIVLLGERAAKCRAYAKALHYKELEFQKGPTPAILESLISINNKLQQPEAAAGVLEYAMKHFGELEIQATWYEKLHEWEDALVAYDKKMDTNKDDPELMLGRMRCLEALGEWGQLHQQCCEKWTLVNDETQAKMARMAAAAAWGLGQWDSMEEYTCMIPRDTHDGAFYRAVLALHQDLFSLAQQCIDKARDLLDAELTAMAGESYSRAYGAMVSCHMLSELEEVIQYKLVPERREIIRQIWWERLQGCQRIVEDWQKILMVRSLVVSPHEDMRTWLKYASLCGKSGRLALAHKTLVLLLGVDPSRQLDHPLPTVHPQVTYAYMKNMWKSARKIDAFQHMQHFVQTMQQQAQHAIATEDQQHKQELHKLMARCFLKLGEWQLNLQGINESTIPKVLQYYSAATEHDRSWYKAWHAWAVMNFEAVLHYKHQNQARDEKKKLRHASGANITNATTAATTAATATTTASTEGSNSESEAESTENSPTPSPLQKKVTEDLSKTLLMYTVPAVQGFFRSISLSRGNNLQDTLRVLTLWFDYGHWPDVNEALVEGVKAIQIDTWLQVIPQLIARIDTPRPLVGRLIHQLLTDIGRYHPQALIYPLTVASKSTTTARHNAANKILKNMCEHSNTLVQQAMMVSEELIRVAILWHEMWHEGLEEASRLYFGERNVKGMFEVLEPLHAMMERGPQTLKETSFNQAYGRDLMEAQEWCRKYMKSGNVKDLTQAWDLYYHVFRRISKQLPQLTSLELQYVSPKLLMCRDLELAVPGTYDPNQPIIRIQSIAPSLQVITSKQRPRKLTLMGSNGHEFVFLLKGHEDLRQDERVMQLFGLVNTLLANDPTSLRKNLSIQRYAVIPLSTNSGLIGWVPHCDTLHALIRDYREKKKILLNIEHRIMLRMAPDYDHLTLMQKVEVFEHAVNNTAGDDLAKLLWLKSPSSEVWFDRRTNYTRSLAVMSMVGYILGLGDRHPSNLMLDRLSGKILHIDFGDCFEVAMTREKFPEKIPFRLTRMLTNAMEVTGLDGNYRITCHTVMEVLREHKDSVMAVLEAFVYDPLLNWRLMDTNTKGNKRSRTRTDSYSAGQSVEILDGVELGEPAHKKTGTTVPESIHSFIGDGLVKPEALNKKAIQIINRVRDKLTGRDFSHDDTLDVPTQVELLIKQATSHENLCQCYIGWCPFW

| Structure (SMILES) | pIC50 [1] | pIC50 [2] |
| --- | --- | --- |
| CCNC(=O)Nc1ccc(-c2nc(N3CCOC[C@@H]3C)cc(C3(S(=O)(=O)c4ccccc4F)CC3)n2)cc1 [Example 58e, 1-ethyl-3-[4-[4-[1-(2-fluorophenyl)sulfonylcyclopropyl]-6-[(3S)-3-methylmorpholin-4-yl]pyrimidin-2-yl]phenyl]urea] | 8.59 | – |
| O=C(Nc1ccc(-c2nc(N3CCOCC3)cc(C3(S(=O)(=O)c4ccccc4)CC3)n2)cc1)Nc1ncns1 [Example 36di, 1-[4-[4-[1-(benzenesulfonyl)cyclopropyl]-6-morpholin-4-ylpyrimidin-2-yl]phenyl]-3-(1,2,4-thiadiazol-5-yl)urea] | 8.03 | – |
| CCS(=O)(=O)C1(c2cc(N3CCOC[C@@H]3C)nc(-c3ccc(NC(=S)NCCCO)cc3)n2)CC1 [Example 88c, 1-[4-[4-(1-ethylsulfonylcyclopropyl)-6-[(3S)-3-methylmorpholin-4-yl]pyrimidin-2-yl]phenyl]-3-(3-hydroxypropyl)thiourea] | 7.33 | – |
| C[C@H]1COCCN1c1cc(C2(S(=O)(=O)C(C)(C)C)CC2)nc(-c2ccc(NC(=O)NCCN(C)C)cc2)n1 [Example 18f, 1-[4-[4-(1-tert-butylsulfonylcyclopropyl)-6-[(3S)-3-methylmorpholin-4-yl]pyrimidin-2-yl]phenyl]-3-(2-dimethylaminoethyl)urea] | 6.92 | – |
| C[C@H]1COCCN1c1cc(C2(S(=O)(=O)c3cc(F)cc(F)c3)CC2)nc(-c2ccc(NC(=O)Nc3cnn(C)c3)cc2)n1 [Example 19m, 1-[4-[4-[1-(3,5-difluorophenyl)sulfonylcyclopro-pyl]-6-[(3S)-3-methylmorpholin-4-yl]pyrimidin-2-yl]phenyl]-3-(1-methylpyrazol-4-yl)urea] | 9.03 | – |
| C[C@@H](CO)NC(=O)Nc1ccc(-c2nc(N3CCOC[C@@H]3C)cc(C3(S(=O)(=O)c4nccs4)CCC3)n2)cc1 [Example 98h, 3-[(2S)-1-hydroxypropan-2-yl]-1-[4-[4-[(3S)-3-methylmorpholin-4-yl]-6-[1-(1,3-thiazol-2-ylsulfonyl)cyclobutyl]pyrimidin-2-yl]phenyl]urea] | 8.44 | – |
| C[C@H]1COCCN1c1cc(C2(S(=O)(=O)c3ccc(Cl)cc3)CCOCC2)nc(-c2ccc(NC(=O)NCCO)cc2)n1 [Example 23l, 1-[4-[4-[4-(4-chlorophenyl)sulfonyloxan-4-yl]-6-[(3S)-3-methylmorpholin-4-yl]pyrimidin-2-yl]phenyl]-3-(2-hydroxyethyl)urea] | 8.05 | – |
| Cc1csc(S(=O)(=O)C2(c3cc(N4CCOC[C@@H]4C)nc(-c4ccc(NC(=S)NC5CC5)cc4)n3)CC2)n1 [Example 37q, 3-cyclopropyl-1-[4-[4-[(3S)-3-methylmorpholin-4-yl]-6-[1-[(4-methyl-1,3-thiazol-2-yl)sulfonyl]cyclopropyl]pyri-midin-2-yl]phenyl]thiourea] | 8.53 | – |
| C[C@H]1COCCN1c1cc(C2(S(=O)(=O)CCCO)CCOCC2)nc(-c2ccc(NC(=O)NC3CCC3)cc2)n1 [Example 36cd, 3-cyclobutyl-1-[4-[4-[4-(3-hydroxypropylsulfonyl)oxan-4-yl]-6-[(3S)-3-methylmorpholin-4-yl]pyrimidin-2-yl]phenyl]urea] | 6.83 | – |
| C[C@H]1COCCN1c1cc(C2(S(C)(=O)=O)CC2)nc(-c2ccc(NC(=O)Nc3ccc(F)cn3)cc2)n1 [Example 2v, 3-(5-fluoropyridin-2-yl)-1-[4-[4-[(3S)-3-methylmorpholin-4-yl]-6-(1-methylsulfonylcyclopropyl)pyrimidin-2-yl]phenyl]urea] | – | 8.06 |
| CCCNC(=O)Nc1ccc(-c2nc(N3CCOC[C@@H]3C)cc(C3(S(=O)(=O)c4ccccc4)CC3)n2)cc1 [Example 36bi, 3-[4-[4-[1-(benzenesulfonyl)cyclopropyl]-6-[(3S)-3-methylmorpholin-4-yl]pyrimidin-2-yl]phenyl]-1-propylurea] | 8.64 | – |
| Cc1ccccc1S(=O)(=O)C1(c2cc(N3CCOC[C@@H]3C)nc(-c3ccc(NC(=O)NCC(F)F)cc3)n2)CC1 [Example 54d, 3-(2,2-difluoroethyl)-1-[4-[4-[(3S)-3-methylmorpholin-4-yl]-6-[1-(2-methylphenyl)sulfonylcyclo-propyl]pyrimidin-2-yl]phenyl]urea] | 8.05 | – |
| CNC(=O)Nc1ccc(-c2nc(N3[C@@H](C)COC[C@@H]3C)cc(C3(S(=O)(=O)c4ccccc4)CC3)n2)cc1 [Example 93a, 1-[4-[4-[1-(benzenesulfonyl)cyclopropyl]-6-[(3S,5S)-3,5-dimethylmorpholin-4-yl]pyrimidin-2-yl]phenyl]-3-methylurea] | 8.52 | – |
| C[C@H]1COCCN1c1cc(C2(S(C)(=O)=O)CC2)nc(-c2ccc(NC(=S)NCCC#N)cc2)n1 [Example 41, 3-(2-Cyanoethyl)-1-[4-[4-[(3S)-3-methylmorpholin-4-yl]-6-(1-methylsulfonylcyclopropyl)pyrimidin-2-yl]phenyl]thiourea] | 7.51 | – |
| CC(C)NC(=O)Nc1ccc(-c2nc(N3CCOC[C@@H]3C)cc(C3(S(=O)(=O)c4cc(F)cc(F)c4)CC3)n2)cc1 [Example 19d, 1-[4-[4-[1-(3,5-difluorophenyl)sulfonylcyclopro-pyl]-6-[(3S)-3-methylmorpholin-4-yl]pyrimidin-2-yl]phenyl]-3-propan-2-ylurea] | 8.50 | – |
| CC(C)(CO)NC(=O)Nc1ccc(-c2nc(N3CCOCC3)cc(C3(S(C)(=O)=O)CC3)n2)cc1 [Example 12e, 3-(1-hydroxy-2-methylpropan-2-yl)-1-[4-[4-(1-methylsulfonylcyclopropyl)-6-morpholin-4-ylpyrimidin-2-yl]phenyl]urea] | – | 8.34 |
| Cc1noc(C)c1S(=O)(=O)C1(c2cc(N3CCOC[C@@H]3C)nc(-c3ccc(NC(=O)NC4CC4)cc3)n2)CC1 [Example 59a, 3-cyclopropyl-1-[4-[4-[1-[(3,5-dimethyl-1,2-oxazol-4-yl)sulfonyl]cyclopropyl]-6-[(3S)-3-methylmorpholin-4-yl]pyrimidin-2-yl]phenyl]urea] | 7.65 | – |
| Cc1nc(S(=O)(=O)C2(c3cc(N4CCOC[C@@H]4C)nc(-c4ccc(NC(=O)Nc5cnn(C)c5)cc4)n3)CC2)sc1C [Example 81, 1-[4-[4-[1-[(4,5-Dimethyl-1,3-thiazol-2-yl)sulfonyl]cyclopropyl]-6-[(3S)-3-methylmorpholin-4-yl]pyrimidin-2-yl]phenyl]-3-(1-methylpyrazol-4-yl)urea] | 7.86 | 8.09 |
| C[C@H]1COCCN1c1cc(C2(S(=O)(=O)c3ccc(C#N)cc3)CC2)nc(-c2ccc(NC(=O)NC3CC3)cc2)n1 [Example 77, 1-[4-[4-[1-(4-Cyanophenyl)sulfonylcyclopropyl]-6-[(3S)-3-methylmorpholin-4-yl]pyrimidin-2-yl]phenyl]-3-cyclopropylurea] | 8.09 | – |
| C[C@H]1COCCN1c1cc(C2(S(=O)(=O)c3ccccc3)CCC2)nc(-c2ccc(NC(=O)NC(C)(C)CO)cc2)n1 [Example 64o, 1-[4-[4-[1-(benzenesulfonyl)cyclobutyl]-6-[(3S)-3-methylmorpholin-4-yl]pyrimidin-2-yl]phenyl]-3-(1-hydroxy-2-methylpropan-2-yl)urea] | 8.46 | – |
| C[C@H]1COCCN1c1cc(C2(S(=O)(=O)c3nccs3)CC2)nc(-c2ccc(NC(=O)NCCO)cc2)n1 [Example 66, 3-(2-Hydroxyethyl)-1-[4-[4-[(3S)-3-methylmorpholin-4-yl]-6-[1-(1,3-thiazol-2-ylsulfonyl)cyclopropyl]pyrimidin-2-yl]phenyl]urea] | 8.52 | – |

Source: patent US20090018134A1, “Compounds - 945” (AstraZeneca AB, priority 2007, published 2009)
